Columns and labels:
Carbonic anhydrase 9 = Carbonic anhydrase 9 (Homo sapiens, UniProt Q16790)
Carbonic anhydrase 1 = Carbonic anhydrase 1 (Homo sapiens, UniProt P00915); assay: Inhibition of human carbonic anhydrase 1-catalyzed CO2 hydration activity by stopped flow assay
Chain of Carbonic anhydrase 1 (P00915 whole entry): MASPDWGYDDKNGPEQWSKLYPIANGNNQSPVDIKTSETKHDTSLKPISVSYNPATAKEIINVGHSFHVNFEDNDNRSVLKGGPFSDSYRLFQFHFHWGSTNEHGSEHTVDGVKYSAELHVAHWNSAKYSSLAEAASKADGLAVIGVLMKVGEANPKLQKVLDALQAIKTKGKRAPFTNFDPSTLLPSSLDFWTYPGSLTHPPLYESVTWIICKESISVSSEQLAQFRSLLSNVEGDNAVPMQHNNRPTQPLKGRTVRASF

| Compound | Ki (Carbonic anhydrase 9) [µM] | Ki (Carbonic anhydrase 1) [µM] |
| --- | --- | --- |
| NS(=O)(=O)c1ccc(C#Cc2cccc(F)c2)cc1 | 0.0058 | – |
| COc1cccc(C#Cc2ccc(S(N)(=O)=O)cc2)c1 | 0.0065 | – |

Next, values leading:

| Ki (Carbonic anhydrase 9) [µM] | Ki (Carbonic anhydrase 1) [µM] | Compound |
| --- | --- | --- |
| 8.45 | 416 | NS(=O)(=O)c1ccccc1C#Cc1cccc(F)c1 |
| 8.6 | 674 | Cc1ccc(C#Cc2ccccc2S(N)(=O)=O)cc1 |
| 6.37 | – | NS(=O)(=O)c1ccccc1C#Cc1ccccc1 |

Source: ChEMBL document CHEMBL1833885 (Bioorg Med Chem Lett, 2011)
